What all share (type): in vivo
One assay relates to Chilo suppressalis. The assay is described as follows: Example B1: activity against Chilo suppressalis (striped rice stemborer), artificial diet. As to conditions: for percent control (mortality, anti-feedant effect or growth inhibition) at 200 ppm: 144 h, L2 larvae, 6 days after infestation, read-out: control (at least one of mortality, anti-feedant effect, growth inhibition). The method in brief: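 First, artificial diet was treated with aqueous solutions prepared from 10'000 ppm DMSO stocks; second, after drying, L2 larvae (6-8/well) were added; third, effects were assessed at 6 days against untreated controls, counting control when any of three categories was higher.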

In assay [1] the test system is Diabrotica balteata. Nature of the assay: Example B2: activity against Diabrotica balteata (corn root worm), maize sprouts. To be noted: 96 h, L2 larvae, 4 days after infestation, read-out: effect in at least one of the two categories (mortality or growth inhibition). The method in brief:
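Maize sprouts on agar were sprayed with aqueous test solutions made from 10′000 ppm DMSO stocks, dried, then infested with 6–10 L2 larvae per well. Mortality and growth inhibition were scored against untreated samples 4 days after infestation, at an application rate of 200 ppm.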

The test system of the next assay is Euschistus heros. The assay is described as follows: Example B3: activity against Euschistus heros (neotropical brown stink bug), soybean leaves. To be noted: for percent effect (mortality or growth inhibition) at 200 ppm: 120 h, N2 nymphs, 5 days after infestation, read-out: effect in at least one of the two categories (mortality or growth inhibition). In outline:
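Soybean leaves on agar sprayed with aqueous dilutions of DMSO stock (10′000 ppm), dried, then infested with N2 nymphs. Mortality and growth inhibition scored against untreated samples 5 days after infestation; application rate 200 ppm.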

For assay [2], the system named is Myzus persicae. The assay is described as follows: Example B4: activity against Myzus persicae (green peach aphid), intrinsic activity. As to conditions: 120 h, test rate 12 ppm, 5 days after infestation. The method in brief:
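Compounds from 10′000 ppm DMSO stocks were mixed into sucrose solution in 24-well plates sealed with Parafilm. Aphid-infested pea seedlings were set on the membrane and the plate inverted so aphids fed through it. Mortality scored 5 days after infestation.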

Assay [3] deals with Plutella xylostella. The assay is described as follows: Example B5: activity against Plutella xylostella (diamond back moth), artificial diet, eggs. As to conditions: 192 h, 8 days after infestation, read-out: effect in at least one of the two categories (mortality or growth inhibition). In outline:
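Artificial diet in 24-well plates was treated with aqueous dilutions of DMSO stocks, dried, then infested with Plutella eggs. Mortality and growth inhibition were scored against untreated samples 8 days after infestation; application rate 200 ppm.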

A further assay deals with Spodoptera littoralis. Nature of the assay: Example B6: activity against Spodoptera littoralis (Egyptian cotton leaf worm), cotton leaf discs. To be noted: foliar; for percent control (mortality, anti-feedant effect or growth inhibition) at 200 ppm: 72 h, L1 larvae, 3 days after infestation, read-out: control (at least one of mortality, anti-feedant effect, growth inhibition). In outline:
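Leaf discs on agar sprayed with aqueous dilutions of 10′000 ppm DMSO stocks, dried, then infested with five L1 larvae. Mortality, anti-feeding and growth inhibition scored versus untreated 3 days after infestation; control given when any category exceeds untreated.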

Another assay relates to Pseudoplusia includens. The assay is described as follows: Example B9: Pseudoplusia includens (soybean looper), larvicide, feeding/contact, soybean plants. To be noted: Chrysodeixis includens; for percent effect (mortality or growth inhibition) at 50 ppm: 120 h, L2 larvae, 5 days after infestation, read-out: effect in at least one of the two categories (mortality or growth inhibition). The method in brief: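 Soybean plants sprayed, cut and held in dishes on wet filter paper; infested 1 d after application with 5 L2 larvae. Mortality and growth inhibition assessed 5 days after infestation; tested at 50 ppm.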

The test system of assay [4] is Diabrotica balteata. Nature of the assay: B14a: Diabrotica balteata (corn root worm), larvicide, feeding/contact, corn seedlings. The text has this: (§1) Activity of compounds P5, P17 and P21 according to the preparatory examples and of a compound from WO 21/083936 against Spodoptera littoralis (Example B6 above), Chilo suppressalis (Example B1 above), Diabrotica balteata (Example B14a below), Plutella xylostella (Example B14b below) and Pseudoplusia includens (Example B9 above) is summarized in Table B14. B14a: Diabrotica balteata (Corn root worm). Larvicide, feeding/contact 3 Corn seedlings were placed on wetted filter paper in plastic cups, and 3 ml of diluted test solutions were pipetted onto them. The cups were infested with 10 L2 larvae and checked for mortality and growth regulation 5 days after treatment. B14b: Plutella xylostella (Diamond back moth). Larvicide L3, feeding/contact Chinese cabbage plants were sprayed with diluted test solutions in an application chamber. Cut off leaves were placed into petri dishes with wetted filter paper and infested 1 day after application with 10 L3 larvae. Samples were assessed 4 days after infestation for mortality and growth regulation.

Assay [5] relates to Plutella xylostella. Nature of the assay: B14b: Plutella xylostella (diamond back moth), larvicide L3, feeding/contact, Chinese cabbage.
Description: as §1

For assay [6], the system named is Myzus persicae. Nature of the assay: Example B7b: Myzus persicae feeding/contact activity, eggplant leaf discs. As to conditions: foliar, 144 h, mixed ages, 6 days after infestation. The protocol:
Eggplant leaf discs were placed onto agar in a 24-well microtiter plate and sprayed with aqueous test solutions prepared from 10′000 ppm DMSO stock solutions. After drying, the leaf discs were infested with an aphid population of mixed ages. The samples were assessed for mortality 6 days after infestation.

The next assay concerns Tetranychus urticae. Nature of the assay: Example B8: activity against Tetranychus urticae (two-spotted spider mite), bean leaf discs. To be noted: foliar, 192 h, mixed population (mobile stages), 8 days after infestation. The method, then:
Bean leaf discs on agar in 24-well microtiter plates were sprayed with aqueous test solutions prepared from 10′000 ppm DMSO stock solutions. After drying the leaf discs were infested with a mite population of mixed ages. The samples were assessed for mortality on mixed population (mobile stages) 8 days after infestation.

The test system of assay [7] is Myzus persicae. Nature of the assay: Example B7a: Myzus persicae feeding/contact activity, sunflower leaf discs. To be noted: foliar, 144 h, mixed ages, 6 days after infestation. The method, then:
Sunflower leaf discs were placed onto agar in a 24-well microtiter plate and sprayed with aqueous test solutions prepared from 10′000 ppm DMSO stock solutions. After drying, the leaf discs were infested with an aphid population of mixed ages. The samples were assessed for mortality 6 days after infestation.

Assay [8] has as its system Carpocapsa (Cydia) pomonella. The assay is described as follows: Example B10: Carpocapsa (Cydia) pomonella (codling moth), larvicide, feeding/contact, diet cubes. As to conditions: 336 h, L1 larvae, 14 days after infestation, read-out: effect in at least one of the two categories (mortality or growth inhibition). The protocol:
Diet cubes coated with paraffin were sprayed with diluted test solutions in an application chamber. After drying off the treated cubes (10 replicates) were infested with 1 L1 larvae. Samples were incubated at 26-27° C. and checked 14 days after infestation for mortality and growth inhibition. The following compounds gave an effect of at least 80% in at least one of the two categories (mortality or growth inhibition) at an application rate of 50 ppm: […]

Data on seven compounds can be found in patent US20260132125A1, “PESTICIDALLY ACTIVE FUSED BICYCLIC HETEROAROMATIC COMPOUNDS” (priority 2022, published 2026).

For the compound `C[C@H](Nc1ncnc2c(C(F)(F)F)cc(Cl)cc12)c1ncnn1-c1cc(C(N)=O)ncn1` [Compound P5, 6-[5-[(1S)-1-[[6-chloro-8-(trifluoromethyl)quinazolin-4-yl]amino]ethyl]-1,2,4-triazol-1-yl]pyrimidine-4-carboxamide], the mortality (in general, the percentage killed) at 3.12 ppm in the assay on Chilo suppressalis is 80%; in the assay with Spodoptera littoralis it was 100%. In addition, the percent control (mortality, anti-feedant effect or growth inhibition) at 200 ppm in the assay on Chilo suppressalis and in the assay with Spodoptera littoralis was ≥ 80% each time. The percent effect (mortality or growth inhibition) at 200 ppm with Diabrotica balteata [1], in the assay with Euschistus heros and with Plutella xylostella [3] was ≥ 80% throughout. The compound also had a mortality at 200 ppm in the assay with Euschistus heros of 100%. In addition, in the assay on Myzus persicae [2], the mortality at 12 ppm is ≥ 80%. The percent effect (mortality or growth inhibition) at 50 ppm with Pseudoplusia includens is ≥ 80%. Further, the mortality at 0.8 ppm with Pseudoplusia includens (Pseudoplusia includens, 0.8 ppm) is 70%; with Diabrotica balteata [4], 100%; with Plutella xylostella [5], 95%. This compound showed a mortality at 12.5 ppm in the assay on Pseudoplusia includens (Pseudoplusia includens) of 100%. In the assay with Plutella xylostella [5], the mortality at 3 ppm amounted to 100%.

With `C[C@@H](c1ncnn1-c1cc(C(N)=O)ncn1)N(C)c1ncnc2c(C(F)(F)F)cc(Cl)cc12` [Compound P50, 6-[5-[(1S)-1-[[6-chloro-8-(trifluoromethyl)quinazolin-4-yl]-methyl-amino]ethyl]-1,2,4-triazol-1-yl]pyrimidine-4-carboxamide], the percent control (mortality, anti-feedant effect or growth inhibition) at 200 ppm with Chilo suppressalis and in the assay with Spodoptera littoralis was ≥ 80% each time. The percent effect (mortality or growth inhibition) at 200 ppm in the assay on Diabrotica balteata [1], in the assay with Euschistus heros and in the assay on Plutella xylostella [3] was ≥ 80% in each case. In the assay with Myzus persicae [2], the mortality at 12 ppm was ≥ 80%. In addition, the mortality at 200 ppm with Myzus persicae [6] and in the assay on Tetranychus urticae was ≥ 80% in each case. Further, the percent effect (mortality or growth inhibition) at 50 ppm with Pseudoplusia includens was ≥ 80%.

For the compound `C[C@H](Nc1ncnc2c(I)cc(Cl)cc12)c1ncnn1-c1cc(C(N)=O)ncn1` [Compound P13, 6-[5-[(1S)-1-[(6-chloro-8-iodo-quinazolin-4-yl)amino]ethyl]-1,2,4-triazol-1-yl]pyrimidine-4-carboxamide], the percent control (mortality, anti-feedant effect or growth inhibition) at 200 ppm in the assay on Chilo suppressalis and with Spodoptera littoralis was ≥ 80% throughout. Moreover, the percent effect (mortality or growth inhibition) at 200 ppm with Diabrotica balteata [1] and in the assay on Plutella xylostella [3] was ≥ 80% each time. Further, the mortality at 12 ppm with Myzus persicae [2] is ≥ 80%. Besides, the mortality at 200 ppm in the assay with Myzus persicae [7] and with Tetranychus urticae was ≥ 80% throughout. In addition, the percent effect (mortality or growth inhibition) at 50 ppm (with Pseudoplusia includens; in [8]) was ≥ 80% throughout.

For the compound `C[C@H](Nc1ncnc2c(Cl)cc(C(F)(F)F)cc12)c1ncnn1-c1cc(C(N)=O)ncn1` [Compound P17, 6-[5-[(1S)-1-[[8-chloro-6-(trifluoromethyl)quinazolin-4-yl]amino]ethyl]-1,2,4-triazol-1-yl]pyrimidine-4-carboxamide], the mortality at 3.12 ppm in the assay on Chilo suppressalis was determined as 40%; in the assay with Spodoptera littoralis, 100%. Besides, the percent control (mortality, anti-feedant effect or growth inhibition) at 200 ppm in the assay on Chilo suppressalis and in the assay with Spodoptera littoralis was ≥ 80% in each case. Moreover, the percent effect (mortality or growth inhibition) at 200 ppm in the assay on Diabrotica balteata [1], with Euschistus heros and with Plutella xylostella [3] was ≥ 80% each time. For the same compound, the results for the mortality at 200 ppm in the assay with Euschistus heros and in the assay with Tetranychus urticae were 80% and ≥ 80%, respectively. In addition, the mortality at 12 ppm in the assay with Myzus persicae [2] is ≥ 80%. Moreover, the percent effect (mortality or growth inhibition) at 50 ppm (in the assay with Pseudoplusia includens; in assay [8]) was ≥ 80% in each case. Further, the mortality at 3 ppm stood at 80% with Pseudoplusia includens (Pseudoplusia includens, 3 ppm) and 100% in the assay with Plutella xylostella [5]. In addition, the mortality at 12.5 ppm in the assay on Pseudoplusia includens (Pseudoplusia includens) turned out to be 100%. In addition, the mortality at 0.8 ppm with Diabrotica balteata [4] and in the assay on Plutella xylostella [5] was 100% in each case.

As to `C[C@H](Nc1ncnc2c(C(F)(F)F)cc(Cl)cc12)c1ncnn1-c1cnc(C(=O)NCC#N)cn1` [Compound P71], the percent control (mortality, anti-feedant effect or growth inhibition) at 200 ppm in the assay with Chilo suppressalis and in the assay on Spodoptera littoralis was ≥ 80% in each case. Further, the percent effect (mortality or growth inhibition) at 200 ppm in the assay on Diabrotica balteata [1] and in the assay on Plutella xylostella [3] was ≥ 80% throughout. Besides, in the assay with Myzus persicae [2], the mortality at 12 ppm was ≥ 80%. Further, the mortality at 200 ppm in the assay with Tetranychus urticae is ≥ 80%.

With `C[C@H](Nc1ncnc2c(C(F)(F)F)cc(C(F)(F)F)cc12)c1ncnn1-c1ccc(C(N)=O)cn1` [WO 21/083936 P.157, reference compound], the mortality at 3.12 ppm in the assay on Chilo suppressalis and in the assay with Spodoptera littoralis was 0% in each case. The mortality at 12.5 ppm with Pseudoplusia includens (Pseudoplusia includens) was found to be 10%. The compound further showed a mortality at 0.8 ppm in the assay with Diabrotica balteata [4] of 35%. Further, the mortality at 3 ppm in the assay on Plutella xylostella [5] worked out at 65%.

Consider `C[C@H](Nc1ncnc2c(C(F)(F)F)cc(Cl)cc12)c1ncnn1-c1cnc(C(N)=O)cn1` [Compound P21, 5-[5-[(1S)-1-[[6-chloro-8-(trifluoromethyl)quinazolin-4-yl]amino]ethyl]-1,2,4-triazol-1-yl]pyrazine-2-carboxamide], for which the mortality at 3.12 ppm was 0% in the assay with Chilo suppressalis and 100% in the assay with Spodoptera littoralis. In addition, the percent control (mortality, anti-feedant effect or growth inhibition) at 200 ppm in the assay on Chilo suppressalis and with Spodoptera littoralis was ≥ 80% throughout. In addition, the percent effect (mortality or growth inhibition) at 200 ppm in the assay with Diabrotica balteata [1] and with Plutella xylostella [3] was ≥ 80% in each case. For the same compound, the mortality at 12 ppm with Myzus persicae [2] is ≥ 80%. Moreover, in the assay with Myzus persicae [6], the mortality at 200 ppm is ≥ 80%. In addition, the percent effect (mortality or growth inhibition) at 50 ppm in the assay with Pseudoplusia includens was ≥ 80%. In the assay on Pseudoplusia includens (Pseudoplusia includens), this compound displayed a mortality at 12.5 ppm of 40%. For the same compound, the mortality at 0.8 ppm with Diabrotica balteata [4] turned out to be 65%. Moreover, the mortality at 3 ppm with Plutella xylostella [5] was determined as 100%.
